Source: article PMC6895180 (Nature Communications, 2019)
Where “and” joins values, the source holds several entries; their conditions need not be identical. Equal values may be shown once. Read-outs that look alike come from different tables or passages of the source.

How the values were obtained:
T. brucei Squib 427 = assay: microbe, parasite or virus in culture; type: cell-based, Trypanosoma brucei brucei; settings: for SI (MRC/T.b. brucei): selectivity index
[1] = tested on: T. b. rhodesiense STIB-900; assay: microbe, parasite or virus in culture; type: cell-based, Trypanosoma brucei rhodesiense; settings: for SI (MRC/T.b. rhodesiense): selectivity index
[2] = Cytotoxicity on MRC-5 fibroblasts (resazurin); type: cell-based, human; settings: human
Procedure, shortened: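 MRC-5SV2 cells (3 × 10^4 cells mL^−1) in MEM with 5% foetal calf serum exposed to compounds for 3 days at 37 °C, 5% CO2. Viability read by resazurin fluorescence (10 µg mL^−1 final, 4 h; λex 550/λem 590 nm) against untreated and medium controls; EC50 derived.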

[3] = tested on: B48: pentamidine, diminazene and melaminophenyl arsenical resistant T. brucei line; assay: microbe, parasite or virus in culture; type: cell-based, Trypanosoma brucei brucei; settings: for RF (B48): resistance factor vs Lister 427WT
P1 transporter = type: cell-based, Trypanosoma brucei
Protocol: Non-specific association of radiolabel with the cell pellet was determined using an identical incubation in the presence of saturating (1 mM) unlabelled adenosine.

[4] = tested on: T. brucei s427 wildtype cells; assay: Microscopy of trypanosome cell morphology (DAPI); type: cell-based, Trypanosoma brucei; settings: 2× and 5× EC50; 6 h and especially 12 h
Protocol: Growth assays of T. brucei
To test the effect of the novel adenosine analogues on the growth of T. brucei BSF, s427 wildtype cells were seeded at 1×10^5 cells mL-1 in 5 mL of HMI-9 medium with 10% FBS and treated with compounds […]
cells were also incubated in drug-free medium under the same conditions. 2 μM of 2’-deoxycoformycin were added to all cultures to avoid any potential effect of serum adenosine deaminase on the activity of test compounds and cordycepin.1
Cells were manually counted in Neubauer chambers at 0, 2, 4, 6, 8, 12, 24, 36 and 48 h after addition of the drugs. At 6 and 12 h, cells were also collected and fixed to have their structure checked by […]
Wash-out experiments with T. brucei
A culture of bloodstream form T. brucei 427WT, at mid-log phase of growth, was harvested and resuspended at a density of 10^5 cells mL-1, in fresh medium containing either no test compound, or […]
The cultures were incubated under standard conditions (37 °C/5% CO2) and cell counts were performed manually using a haemocytometer under phase contrast microscopy, every 24 h. The culture in continuous presence of analogue 9 was split in two at 8 h and 48 h (as indicated with arrows in Supplementary Figure S2). The split cultures were centrifuged and resuspended in the same volume of either fresh medium without test compound or fresh medium with the same concentration of compound 9 as before, reincubated. The detection limit for the manual cell count was 10^4 cells mL-1.
After 6 and 12 h after addition of drugs, approximately 2×10^6 cells were harvested from each group and applied to glass slides pre-treated with poly-L-lysine, left to settle for 5 min and fixed with 4% formaldehyde for 4 min. The formaldehyde was neutralised by addition of 100 mM glycine (20 min).
Cells were washed once with PBS and blocked for 1 h with 1% BSA/0.2% Tween-20 in PBS. Cells were […]
A coverslip was then placed on top of the wells and sealed with nail varnish.
Metabolic stability of nucleoside analogue 9 […]
and B (Corning) were kept at -20°C. The test compound and the reference compounds diclofenac (MW […]

[5] = Trypanosoma brucei, Alamar blue cell viability assay, mean and SEM, read-out: T. b. brucei EC50
[6] = Trypanosoma brucei, RHODESIENSE, Alamar blue cell viability assay, mean and SEM, read-out: T. b. rhodesiense EC50
[7] = Trypanosoma brucei, RHODESIENSE, source data, read-out: T. brucei rhodesiense EC50, Average
[8] = Trypanosoma brucei, RHODESIENSE, source data, read-out: T. brucei rhodesiense EC50, single measurements
[9] = source data, read-out: T. brucei rhodesiense EC50, single measurements
[10] = Trypanosoma brucei, mean and SEM, n = 3, read-out: B48 EC50
[11] = source data, read-out: P1 transporter Ki, AVG
[12] = Trypanosoma brucei, source data, read-out: T. brucei brucei EC50, Average
[13] = MRC-5SV2 human embryonic lung fibroblasts, cytotoxicity in human MRC-5 fibroblasts, mean and SEM, read-out: MRC-5 EC50
[14] = inhibition of [3H]adenosine uptake, mean ± SEM, n = 3, read-out: P1 transporter Ki

Nc1ncnc2c1c(Br)cn2[C@@H]1O[C@H](CO)[C@@H](O)[C@H]1O [Compound 8, 7-bromotubercidin]
EC50 (T. brucei Squib 427; [5]): 1200 ± 300 nM | SI (MRC/T.b. brucei) (T. brucei Squib 427): 10 | EC50 [1, 6]: 120 ± 20 nM | EC50 [1, 7]: 120 nM | EC50 [1, 8]: 106 nM | SI (MRC/T.b. rhodesiense) [1]: 107 | EC50 [1, 9]: 136 nM | EC50 at 3 day ([2]; MRC-5 EC50, Average): 12.8 µM | EC50 at 3 day ([2]; MRC-5 EC50, single measurements): 8.18 µM | EC50 [3, 10]: 448 ± 196 nM | RF (B48) [3]: 1.42 | Ki (P1 transporter; [11]): 7.1 µM | cell morphology [4]: clear aberrant morphology

Nc1ncnc2c1ccn2[C@@H]1O[C@H](CO)C[C@H]1O [Compound 9, 3’-deoxytubercidin]
EC50 (T. brucei Squib 427; [5]): 48 ± 9 nM | EC50 (T. brucei Squib 427; [12]): 47.7 nM | EC50 (T. brucei Squib 427; Trypanosoma brucei, source data, read-out: T. brucei brucei EC50, single measurements): 39.9 nM | SI (MRC/T.b. brucei) (T. brucei Squib 427): >1333 | EC50 (T. brucei Squib 427; source data, read-out: T. brucei brucei EC50, single measurements): 65.2 nM and 38 nM | EC50 [1, 6]: 0.52 ± 0.04 nM | EC50 [1, 7]: 0.521 nM | EC50 [1, 8]: 0.484 nM | SI (MRC/T.b. rhodesiense) [1]: >123,077 | EC50 [1, 9]: 0.557 nM | EC50 at 3 day [2, 13]: > 64 µM | EC50 at 3 day ([2]; MRC-5SV2 human embryonic lung fibroblasts, source data, read-out: MRC-5 EC50, single measurements): > 64 µM | EC50 [3, 10]: 368 ± 13 nM | EC50 ([3]; Trypanosoma brucei, source data, read-out: B48 EC50, single determinations): 378 nM | EC50 ([3]; source data, read-out: B48 EC50, single determinations): 383 nM and 343 nM | Ki (P1 transporter; [14]): 99.9 ± 21.7 µM | Ki (P1 transporter; [11]): 108 µM | cell morphology [4]: clear aberrant morphology

Nc1ncnc2c1c(Br)cn2[C@@H]1O[C@H](CO)C[C@H]1O [Compound 10, 3’-deoxy-7-Br-tubercidin]
EC50 (T. brucei Squib 427; [5]): 1.3 ± 0.3 nM | EC50 (T. brucei Squib 427; [12]): 1.29 nM | SI (MRC/T.b. brucei) (T. brucei Squib 427): 11,462 | EC50 [1, 6]: 0.4 ± 0.09 nM | EC50 [1, 7]: 0.398 nM | SI (MRC/T.b. rhodesiense) [1]: 37,500 | EC50 [1, 9]: 0.5 nM | EC50 at 3 day [2, 13]: 15 ± 3 µM | EC50 [3, 10]: 1.3 ± 0.3 nM | EC50 ([3]; Trypanosoma brucei, source data, read-out: B48 EC50, AVG): 1.32 nM | RF (B48) [3]: 0.75 | fold improvement of affinity for P1 (P1 transporter; 10 versus 9 (bromine at 7-position)): 10 fold | Ki (P1 transporter; Cheng–Prusoff from IC50, read-out: P1 transporter Ki, single experiments): 13.4 µM and 8.5 µM and 8.4 µM | Ki (P1 transporter; [14]): 9.47 ± 1.4 µM | Ki (P1 transporter; [11]): 10.1 µM | cell morphology [4]: clear aberrant morphology
